Assay results as given in US4370326A, “Cephem compounds and composition” (Fujisawa Pharmaceutical Co., Ltd., priority 1977, dated 1983).
Converted amounts (≈) assume the structure as drawn.

What was measured:
Assay in all cases: In vitro antibacterial activity, two-fold agar-plate dilution method
Assay type in all cases: cell-based
Klebsiella aerogenes 417 = details: heart infusion agar, 37° C., 20 hours, 10^8 viable cells per ml, read-out: minimal inhibitory concentration (MIC)
Experimental: (§1) In vitro antibacterial activity was determined by the two-fold agar-plate dilution method as described below. One loopful of an overnight culture of each test strain in Trypticase-soy broth (10^8 viable cells per ml.) was streaked on heart infusion agar (HI-agar) containing graded concentrations of antibiotics, and the minimal inhibitory concentration (MIC) was expressed in terms of μg/ml. after incubation at 37° C. for 20 hours. [drawing 15]

Proteus mirabilis 520 = details: heart infusion agar, 37° C., 20 hours, 10^8 viable cells per ml, read-out: minimal inhibitory concentration (MIC)
Experimental: as §1

Salmonella enteritidis = details: Salmonella enterica, heart infusion agar, 37° C., 20 hours, 10^8 viable cells per ml, read-out: minimal inhibitory concentration (MIC)
Experimental: as §1

Proteus vulgaris 616 = details: heart infusion agar, 37° C., 20 hours, 10^8 viable cells per ml, read-out: minimal inhibitory concentration (MIC)
Experimental: as §1

Escherichia coli 324 = details: heart infusion agar, 37° C., 20 hours, 10^8 viable cells per ml, read-out: minimal inhibitory concentration (MIC)
Experimental: as §1

MIC (Klebsiella aerogenes 417) [mg/L]	MIC (Proteus mirabilis 520) [mg/L]	MIC (Salmonella enteritidis) [mg/L]	MIC (Proteus vulgaris 616) [mg/L]	MIC (Escherichia coli 324) [mg/L]	Compound
0.1 (≈ 0.282 µM)	0.78 (≈ 2.2 µM)	1.56 (≈ 4.4 µM)	12.5 (≈ 35.3 µM)	1.56 (≈ 4.4 µM)	Nc1nc(C(=O)C(=O)NC2C(=O)N3C(C(=O)O)=CCSC23)cs1 (centres unmarked) [Compound 1]
0.2 (≈ 0.588 µM)	0.39 (≈ 1.15 µM)	1.56 (≈ 4.58 µM)	6.25 (≈ 18.4 µM)	1.56 (≈ 4.58 µM)	Nc1nc(CC(=O)NC2C(=O)N3C(C(=O)O)=CCSC23)cs1 (centres unmarked) [Compound 2]
0.39 (≈ 1.1 µM)	0.78 (≈ 2.19 µM)	3.13 (≈ 8.81 µM)	1.56 (≈ 4.39 µM)	0.78 (≈ 2.19 µM)	Nc1nc(C(N)C(=O)NC2C(=O)N3C(C(=O)O)=CCSC23)cs1 (centres unmarked) [Compound 3]
0.78 (≈ 2.19 µM)	1.56 (≈ 4.38 µM)	3.13 (≈ 8.78 µM)	12.5 (≈ 35.1 µM)	1.56 (≈ 4.38 µM)	Nc1nc(C(O)C(=O)NC2C(=O)N3C(C(=O)O)=CCSC23)cs1 (centres unmarked) [Compound 4]
